Test results: patent publication US11607458B2 (Georgia State University Research Foundation, Inc, priority 2017, dated 2023)
Where “and” joins values, the source holds several entries; their conditions need not be identical. Equal values may be shown once. Read-outs that look alike come from different tables or passages of the source.

Legend:
[1] = Stability of tetrazine prodrugs in PBS with or without 1 mM cysteine (HPLC); assay type: physicochemical; details: 25 μM, n = 4; for Prodrugs remaining, 24 h in PBS with 1 mM Cys at 37° C. / Prodrugs remaining, 24 h in PBS with 1 mM Cys at r.t: PBS (5% DMSO) with 1 mM Cys; for Prodrugs remaining, 24 h in PBS at 37° C. / Prodrugs remaining, 24 h in PBS at r.t: PBS (5% DMSO)
Method: Due to the electron deficient nature of the tetrazine moiety, the stability of the tetrazine-linked prodrugs in the presence of high concentrations of thiol species was studied. In general, a solution of tetrazine prodrug (500 μL, 500 μM) was added to either 9.5 mL of PBS or 1 mM cysteine solution in PBS in a 20-mL vial. The solution was stirred at r.t. or 37° C. for 24 h. The reaction solution was injected into HPLC, and analyzed with Method A (described above) for prodrugs 1b and 1c, and Method B for prodrug 1d.
Prodrug (1d or 1b, 25 μM in PBS alone or in the presence of 1 mM cysteine (Cys) in PBS) was incubated at r.t or 37° C. for 24 h. Then HPLC was used to monitor the concentration of the remaining prodrug (Table 5). No stability problems were observed.

HeLa cells = test: Cytotoxicity studies in HeLa cells (MTT assay / crystal violet assay); assay type: cell-based
Method: Cell cultures. HeLa cells (ATCC) were used in the following cell culture studies. HeLa cells were maintained in DMEM (Dulbecco's Modified Eagle's Medium) supplemented with 10% fetal bovine serum (MidSci; S01520HI), and 1% penicillin-streptomycin (Sigma-Aldrich; P4333) at 37° C. with 5% CO2.
Cytotoxicity studies. Test compound was dissolved in DMSO to afford a stock solution. The final concentration of DMSO in the cell culture was 1% (v/v) in PBS. HeLa cells were seeded in 96-well plates one day before the experiment. Different concentrations of prodrug was added into the cell culture. The cells were then incubated for 48 h at 37° C. with 5% CO2. The cell viability was tested by the MTT assay described in Levitz, S. M., et al. J Infect Dis 1985, 152, 938-945. Specifically, after 48 h of incubation, 5 mg/mL MTT (3-(4,5-dimethylthiazol-2-yl)-2,5-diphenyltetrazolium bromide) was added into the cell culture. After incubation for 4 h, the supernatant was removed and 100 μL DMSO was added into the wells containing the cells. After shaking gently for 3 min, absorbance at 605 nm was read by a plate reader.
Cytotoxicity studies using crystal violet assay. The test compound was dissolved in DMSO to afford a stock solution. The final concentration of DMSO in cell culture was 1% (v/v) in PBS. HeLa cells were seeded in 96-well plates one day before the experiment. Different concentrations of the test compound were added into the cell culture. The cells were then incubated for 48 h at 37° C. with 5% CO2. Cell viability was tested by the crystal violet assay. Specifically, after 48 h of incubation, the cells were fixed in 100% methanol for 10 min and stained for 20 min with a 1% crystal violet solution in 50% methanol, followed by 5 repeated washings with PBS. 50 μL of DMSO was added to each well. After 20 min of incubation, the plates were analyzed in a microplate reader at 595 nm.
Similar results were observed when the alkyne concentration was decreased to 10 μM. For example, the IC50 of TPP-Dox prodrug 1c was about 2 μM in the presence of 2b, while the IC50 for Dox prodrug 1b was well over 10 μM in the presence of 10 μM of the alkyne trigger 2a (FIG. 3a). As controls, both the IC50 values of 1c and 2b alone were higher than 40 μM, and the treatment of 20 μM of alkyne 2a or 2b alone had no effect on cell viability. […] Without such an enrichment, the reaction is expected to be slow, resulting in a lower level of active Dox being released. […] Thus, mitochondrial enrichment leads to triggered release of the drug. The same concept is applicable to the delivery of drugs through other targeting approaches such as receptor-mediated drug delivery.

Row | Prodrugs remaining, 24 h in PBS with 1 mM Cys at 37° C. [1] [%] | Prodrugs remaining, 24 h in PBS with 1 mM Cys at r.t [1] [%] | Prodrugs remaining, 24 h in PBS at 37° C. [1] [%] | Prodrugs remaining, 24 h in PBS at r.t [1] [%] | SMILES | IC50 (HeLa cells; compound alone, 48 h, read-out: IC50 in Hela cell line) [nM] | IC50 (HeLa cells; in the presence of 10 μM alkyne trigger 2a, 48 hours (FIG. 3a), read-out: IC50 in HeLa cells) [nM] | IC50 (HeLa cells; in the presence of 20 μM alkyne 2a, 48 hours (FIG. 3b), read-out: IC50 in HeLa cells) [nM] | IC50 (HeLa cells; in the presence of 50 μM alkyne 2b, 48 h, listed as Dox-prodrug 1b, read-out: IC50 in Hela cell line) [nM] | IC50 (HeLa cells; in the presence of 50 μM alkyne 2b, 48 h, listed as Dox-prodrug lb, read-out: IC50 in Hela cell line) [nM] | IC50 (HeLa cells; in the presence of 50 μM alkyne 2d, 48 h, listed as Dox-prodrug 1b, read-out: IC50 in Hela cell line) | IC50 (HeLa cells; in the presence of 100 μM alkyne 2d, 48 h, read-out: IC50 in Hela cell line) [nM] | IC50 (HeLa cells; Homo sapiens, HeLa, 48 h, compound alone, 48 h, read-out: IC50 in Hela cell line) [nM] | IC50 (HeLa cells; Homo sapiens, HeLa, 48 h, in the presence of 10 μM alkyne 2b, 48 hours (FIG. 3a), read-out: IC50 in HeLa cells) [nM] | IC50 (HeLa cells; Homo sapiens, HeLa, 48 h, in the presence of 20 μM TPP-alkyne 2b, 48 hours (FIG. 3b), read-out: IC50 in HeLa cells) [nM]
1 | 76 ± 5 | 80 ± 5 | 78 ± 5 | 85 ± 5 | C#CCOc1ccc(-c2nnc(C(=O)NC3CC(OC4CC(O)(C(=O)CO)Cc5c(O)c6c(c(O)c54)C(=O)c4c(OC)cccc4C6=O)OC(C)C3O)nn2)cc1 (stereo not drawn) [1b] | > 100000 | > 10000 | ~10000 | ~2000 | 2300 ± 400 | ~1500 nM and 1500 nM | 1300 ± 200 | – | – | –
2 | – | – | – | – | COc1cccc2c1C(=O)c1c(O)c3c(c(O)c1C2=O)CC(O)(C(=O)CO)CC3OC1CC(NC(=O)c2nnc(-c3ccc(OCc4cn(CCCCCCCCC[P+](c5ccccc5)(c5ccccc5)c5ccccc5)nn4)cc3)nn2)C(O)C(C)O1 (stereo not drawn) [1c] | – | – | – | – | – | – | – | > 40000 | ~2000 | ~1500
3 | 81 ± 5 | 88 ± 5 | 85 ± 5 | 91 ± 5 | C#CCOc1ccc(-c2nnc(C(=O)NCCCOCCOCCOCCCNS(=O)(=O)c3cccc4c(N(C)C)cccc34)nn2)cc1 [1d] | – | – | – | – | – | – | – | – | – | –
